# Reference: patent publication US7300925B2, “2-ethyl and 2-ethylidene-19-nor-vitamin D compounds” (Wisconsin Alumni Research Foundation, priority 2000, dated 2007)
# “And” between values parts separate entries of the source, which are not always exact repeats. Equal entries are not always repeated.
# Experiments:
# [1] = test system: intestinal calcium transport; test: support of intestinal calcium transport in vitamin D-deficient rats on a low-calcium diet; assay type: in vivo; settings: for Ca transport S/M (mean ± SEM): vitamin D-deficient rats, low-calcium diet, 24 hours after the last dose
# [2] = test system: bone calcium mobilization; test: bone calcium mobilization (serum Ca) in vitamin D-deficient rats on a low-calcium diet; assay type: in vivo; settings: for Serum Ca (mean ± SEM): vitamin D-deficient rats, low-calcium diet, 24 hours after the last dose
# [3] = test system: human promyelocyte HL-60 cells; test: induction of differentiation of HL-60 cells into monocytes; assay type: cell-based; settings: compared with 1α,25-(OH)2D3; FIG. 6a, 6b
# Method: FIG. 6a is a graph illustrating the percent HL-60 cell differentiation as a function of the concentration of the 2-ethylidene-19-nor-vitamins as compared to 1α,25-dihydroxyvitamin D3; and
# FIG. 6b is a graph illustrating the percent HL-60 cell differentiation as a function of the concentration of the 2α and 2β-ethyl-19-nor-vitamins as compared to 1α,25-dihydroxyvitamin D3.
# The synthesized vitamins were tested for their ability to bind the porcine intestinal vitamin D receptor. […] In the next assay, the cellular activity of the synthesized compounds was established by studying their ability to induce differentiation of human promyelocyte HL-60 cells into monocytes.
# [4] = 130 pmol daily i.p. for seven days
# [5] = 260 pmol daily i.p. for seven days
# [6] = 65 pmol daily i.p. for seven days
Compound,"Ca transport S/M (mean ± SEM) [1, 4]","Ca transport S/M (mean ± SEM) [1, 5]","Serum Ca (mean ± SEM) [2, 4]","Serum Ca (mean ± SEM) [2, 5]",ability to induce differentiation of HL-60 cells into monocytes (in words) [3],"Ca transport S/M (mean ± SEM) [1, 6]","Serum Ca (mean ± SEM) [2, 6]",calcemic activity in vivo in rats (in words) ([2]; overall judgement of Table 1 (intestine and bone)),"intestinal activity (in words) ([1]; rats, Table 1)","ability to mobilize calcium from bone (in words) ([2]; rats, Table 1)"
"C=C1/C(=C\C=C2/CCC[C@]3(C)[C@@H]([C@H](C)CCCC(C)(C)O)CC[C@@H]23)C[C@@H](O)C[C@@H]1O [Compound 1, 1α,25-dihydroxyvitamin D3, reference compound]",4.9 ± 0.7 and 5.5 ± 0.5,5.9 ± 0.4 and 6.0 ± 0.9 and 6.5 ± 0.9,5.2 ± 0.2 and 5.1 ± 0.3,5.8 ± 0.3 and 6.4 ± 0.4 and 5.8 ± 0.1,,,,,,
"CC=C1[C@H](O)CC(=C/C=C2\CCC[C@@]3(C)C2CCC3[C@@H](C)CCCC(C)(C)O)C[C@H]1O (stereo partly drawn) [Compound 4b, 2-ethylidene-19-nor-(20S)-1α,25-(OH)2D3 (E-isomer)]",5.8 ± 0.8,,12.1 ± 0.6,,"more potent than 1α,25-(OH)2D3",9.0 ± 0.3,8.2 ± 0.3,especially potent,,
"CC=C1C(O)CC(=CC=C2CCCC3(C)C2CCC3C(C)CCCC(C)(C)O)CC1O (stereo not drawn) [Compound 4a, 1α,25-dihydroxy-2(E)-ethylidene-19-nor-vitamin D3]",6.8 ± 0.4,,5.2 ± 0.2,,,5.0 ± 0.4,4.5 ± 0.1,,,
"CC=C1[C@H](O)CC(=C/C=C2\CCC[C@@]3(C)C2CCC3[C@@H](C)CCCC(C)(C)O)C[C@H]1O (stereo partly drawn) [Compound 5b, 2-ethylidene-19-nor-(20S)-1α,25-(OH)2D3 (Z-isomer)]",3.8 ± 0.3,,4.0 ± 0.1,,,4.3 ± 0.7,4.0 ± 0.3,,,
"CCC1C(O)CC(=CC=C2CCCC3(C)C2CCC3C(C)CCCC(C)(C)O)CC1O (stereo not drawn) [Compound 7a, 2β-ethyl-19-nor-1α,25-(OH)2D3]",,3.7 ± 0.3,,5.0 ± 0.1,,,,,,
"CCC1C(O)CC(=CC=C2CCCC3(C)C2CCC3C(C)CCCC(C)(C)O)CC1O (stereo not drawn) [Compound 6a, 2α-ethyl-19-nor-1α,25-(OH)2D3]",,4.0 ± 0.4,,5.1 ± 0.1,,,,,,
"CC=C1C(O)CC(=CC=C2CCCC3(C)C2CCC3C(C)CCCC(C)(C)O)CC1O (stereo not drawn) [Compound 5a, 1α,25-dihydroxy-2(Z)-ethylidene-19-nor-vitamin D3]",5.7 ± 0.9,,4.2 ± 0.0,,,4.4 ± 0.4,4.4 ± 0.2,,,
"CCC1C(O)CC(=CC=C2CCCC3(C)C2CCC3C(C)CCCC(C)(C)O)CC1O [Compound 7b, 2β-ethyl-19-nor-(20S)-1α,25-(OH)2D3]",,4.1 ± 0.3,,5.6 ± 0.1,,,,,,
"CCC1C(O)CC(=CC=C2CCCC3(C)C2CCC3C(C)CCCC(C)(C)O)CC1O [Compound 6b, 2α-ethyl-19-nor-(20S)-1α,25-(OH)2D3]",,5.0 ± 0.4,,7.0 ± 0.1,,,,,marked intestinal activity,strong calcium mobilization response
